Assay results reported in US8420605B2, “Hydrogel compositions” (The University of Strathclyde, priority 2005, dated 2013).
Ends that are not written are not given here. * marks the point of attachment. Fmoc = O=C(OCC1c2ccccc2-c2ccccc21)*; Cbz = O=C(OCc1ccccc1)*

Tests used:
[1] = Preparation of self-assembled peptide hydrogels by pH adjustment (gel formation); format: physicochemical; conditions: for pH: pH at which the gel formed at the indicated concentrations (Table 3)
Protocol: Fmoc peptides (from BACHEM Ltd) were weighed out into 4 ml glass vials. 2 ml purified water was added followed by sonication for 30-60 seconds. 0.5M NaOH solution was added in 50 μl droplets until a clear solution was formed. 0.1M HCl was added to the solution by stepwise addition of 50 μl followed by mixing using a vortex. pH values were estimated by transferring a spatula tip of hydrogel onto universal indicator paper.
Self-assembled scaffolds were prepared by first suspending the Fmoc-dipeptide in purified water. Upon increase of the pH by addition of concentrated NaOH (thus de-protonating the carboxylic acid group) to a value of >8, a clear solution was obtained. To this solution, concentrated hydrochloric acid was added drop wise until the pH of the solution became 7, at which point a clear, self-supporting gel was formed.
Table 3 below identifies various peptide derivatives (incorporating an aromatic stacking ligand) and mixtures thereof that formed gels at a pH of 6-8 at the indicated concentrations: […]

[2] = Hydrogel formation from Fmoc-amino acid/di-peptide combinations (tripeptides); format: physicochemical; conditions: Fmoc-AA + di-peptide combination
Excerpt: The inventors thought it would be sensible to retain the two consecutive phenylalanine residues in the peptide, but introduce a third amino acid immediately after the Fmoc cap and before the Phe-Phe. […] In addition, the inventors also made the tripeptide: Fmoc-Leu-Leu-Leu.

[3] = Xu et al., J. Am. Chem. Soc. 2003, 125, 13680; cited from earlier work
[4] = Preparation of self-assembled peptide hydrogels by pH adjustment (gel formation); format: physicochemical

Cbz-Leu-Leu-Leu-OH
Gel? ([1]; Component 1 5-20 mM/L, pH 7): ✓
pH [1]: 7

Fmoc-Leu-Phe-Phe
Gel formed? [2]: ✓

Fmoc-Gly-D-Ala
pH value for gelation [3]: 5

Fmoc-Val-Phe-Phe
Gel formed? [2]: ✓

Fmoc-Phe-Phe-Phe-OH
Gel formed? [2]: ✓
Gel? ([1]; Component 1 5-20 mM/L, pH 7): ✓
pH [1]: 7

Fmoc-Ala-Ala-OH
pH [1]: 3
Gel? ([4]; Component 1 40 mM/L, pH 3): ✓

Fmoc-Ala-Phe-Phe
Gel formed? [2]: ✓

Fmoc-Leu-Leu-Leu
Gel formed? [2]: ✓

Cbz-Phe-Phe-OH
Gel? ([1]; Component 1 10-30 mM/L, pH 6-8): ✓
pH [1]: 6-8

Fmoc-Gly-Gly-OH
pH [1]: 3-5
Gel? ([4]; Component 1 10-40 mM/L, pH 3-5): ✓
pH value for gelation [3]: 3

Fmoc-Phe-Gly-OH
pH [1]: 3-5
Gel? ([4]; Component 1 20 mM/L, pH 3-5): ✓

Fmoc-Gly-L-SER
pH value for gelation [3]: 5

Fmoc-Leu-Gly-OH
pH [1]: 2
Gel? ([4]; Component 1 20 mM/L, pH 2): ✓

Fmoc-D-Ala-D-Ala
pH value for gelation [3]: 3

Fmoc-L-Ala-L-Ala
pH value for gelation [3]: 3
